Calls of active or inactive are those of the source. The calls are words filed in the database; no cut-off is given here.
Key:
[1] = target: Transthyretin (Homo sapiens) (UniProt P02766); assay: Displacement of [125I]-T4 from human recombinant TTR expressed in Escherichia coli BL21(DE3) Star by gamma spectrometric analysis
[2] = Binding affinity to wild type TTR/Amyloid beta (1 to 40 residues) binary complex (unknown origin) assessed as complex dissociation constant by isothermal titration calorimetry; design: species or system Homo sapiens
[3] = species: Homo sapiens; assay: Binding affinity to wild type TTR/Amyloid beta (1 to 40 residues) binary complex (unknown origin) assessed as Gibbs free energy change for binary complex by isothermal titration calorimetry
[4] = species: Homo sapiens; assay: Binding affinity to wild type TTR/Amyloid beta (1 to 40 residues) binary complex (unknown origin) assessed as change in enthalpy binary by isothermal titration calorimetry
[5] = species: Homo sapiens; assay: Binding affinity to wild type TTR/Amyloid beta (1 to 40 residues) binary complex (unknown origin) assessed as change in entropy for binary complex by isothermal titration calorimetry
[6] = test system: SH-SY5Y; assay: Neuroprotective activity against amyloid beta (1 to 42 residues)-induced cell injury in human SH-SY5Y cells assessed as reduction in caspase 3 level; type: functional, cell-based

O=C(O)c1cc(/N=N/c2cccc([N+](=O)[O-])c2)cc(I)c1O
Activity [1]: Active

O=C(O)c1cc(/N=N/c2ccc(O)c(C(=O)O)c2)ccc1O [OLSALAZINE]
Kd [2]: 0.81 µM | deltaG [3]: -36.4 kJ/mol | deltaH [4]: -36.5 kJ/mol | -TdeltaS [5]: 0.0837 kJ/mol | Activity [6]: Active

Oc1c(I)cc(Cl)c2cccnc12
Activity [1]: Active

Cc1ccc(C(=O)c2cc(O)c(O)c([N+](=O)[O-])c2)cc1
Activity [1]: Active

O=C(O)CCNC(=O)CCNC(=O)c1cc(-c2ccc(F)cc2F)cc(I)c1O
Activity [1]: Active

O=C(O)c1cc(-c2ccc(F)cc2F)cc(I)c1O
deltaG [3]: -32.1 kJ/mol | deltaH [4]: -6.44 kJ/mol | -TdeltaS [5]: -25.6 kJ/mol | Activity [6]: Active | Activity [1]: Active

O=C(O)c1cc(-c2ccc3ccccc3c2)cc(I)c1O
Activity [1]: Active

CCCCN(CCCC)C[C@H](O)c1cc(Cl)cc2c1-c1ccc(Cl)cc1/C2=C/c1ccc(Cl)cc1
Activity [1]: Active

O=C(O)c1cc(/N=N/c2cccc([N+](=O)[O-])c2)ccc1O
Activity [1]: Active

CC1=C(CC(=O)O)c2cc(F)ccc2/C1=C\c1ccc([S+](C)[O-])cc1 (stereo not drawn) [SULINDAC]
Kd [2]: 3.42 µM | deltaG [3]: -34.1 kJ/mol | deltaH [4]: -13.5 kJ/mol | -TdeltaS [5]: -20.6 kJ/mol

C=Cc1cc2oc(-c3ccc(O)c(F)c3)nc2cc1O
Activity [1]: Active

Oc1c(I)cc(I)cc1I
Activity [1]: Active

CCc1ccc(CCOc2ccc(CC3SC(=O)NC3=O)cc2)nc1 (stereo not drawn)
Activity [1]: Active

CC/C(=C(/CC)c1ccc(O)cc1)c1ccc(O)cc1
Activity [1]: Active

O=C(O)c1ccccc1Nc1cccc(C(F)(F)F)c1 [FLUFENAMIC ACID]
Kd [2]: 2.34 µM | deltaG [3]: -34.6 kJ/mol | deltaH [4]: -15.3 kJ/mol | -TdeltaS [5]: 19.3 kJ/mol | Activity [6]: Active

COc1ccccc1Oc1ccc(N(Cc2cccnc2)S(=O)(=O)CC(F)(F)F)cc1
Activity [1]: Active

O=c1cc(-c2ccc(O)c(O)c2)oc2cc(O)cc(O)c12 [LUTEOLIN]
Kd [2]: 1.52 µM | deltaG [3]: -33.2 kJ/mol | deltaH [4]: -2.22 kJ/mol | -TdeltaS [5]: 30.5 kJ/mol | Activity [6]: Active | Activity [1]: Active

O=C(O)c1ccc2nc(-c3cc(Cl)cc(Cl)c3)oc2c1
Activity [1]: Active

— ChEMBL document CHEMBL5154641, “Targeting transthyretin in Alzheimer's disease: Drug discovery of small-molecule chaperones as disease-modifying drug candidates for Alzheimer's disease” (Eur J Med Chem, 2021)
